Laboratory results reported in patent publication US8927689B2, “Peptide nanostructures and methods of generating and using the same” (Ramot at Tel-Aviv University Ltd., priority 2002, dated 2015).
Non-standard residues stand in square brackets, D forms with d. Residues, ends and D or L forms follow the SMILES beside them.

How the values were obtained:
[1] = molecular target: Proteinase K (Parengyodontium album, UniProt P06873); test: Incubation of peptide nanotubes with Proteinase K, electron microscopy examination; type: in vitro ADME; conditions: one hour of incubation with 0.02 mg/ml of Proteinase K; compared with before incubation
Chain of Proteinase K (P06873 106-384): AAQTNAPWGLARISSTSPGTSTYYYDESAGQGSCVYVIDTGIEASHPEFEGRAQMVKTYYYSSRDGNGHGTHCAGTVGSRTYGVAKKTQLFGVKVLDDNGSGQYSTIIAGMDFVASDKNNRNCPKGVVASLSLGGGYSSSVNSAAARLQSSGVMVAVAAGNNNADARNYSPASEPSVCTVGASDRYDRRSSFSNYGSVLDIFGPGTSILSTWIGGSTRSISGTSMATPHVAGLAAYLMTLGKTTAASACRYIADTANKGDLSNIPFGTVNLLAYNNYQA
From the text: For other applications, such as the assembly of nanotube based biosensors or hollow tubing of nanofluidic circuits, enzymatically stable nanotubes are desired. To assemble such stable tubes, proteolytically stable building blocks based on the D-amino-acids analogue of the peptide, NH2-D-Phe-D-Phe-COOH (SEQ ID NO: 8) were used. This peptide formed nanotubes with the same structural features as the corresponding L-amino-acids peptide (FIG. 12a).

[2] = Dissolving lyophilized peptide in 1,1,1,3,3,3-hexafluoro-2-propanol; type: physicochemical; conditions: 100 mg/ml
Description: Peptides (NH2-Phe-Phe-COOH, SEQ ID NO: 1) were purchased from Bachem (Budendorf, Switzerland). Freshly prepared stock solution was prepared by dissolving lyophilized form of the peptide in 1,1,1,3,3,3,-Hexafluoro-2-propanol at a concentration of 100 mg/ml. To avoid any pre-aggregation, fresh stock solution were prepared for each experiment.
Very concentrated peptide solution (i.e., 100 mg/ml) were prepared by dissolving the lyophilized peptide in 1,1,1,3,3,3 hexafluoro-2-propanol. […] Assembly into supramolecular structures was determined within minutes at the μM range, using dynamic light scattering analysis (data not shown).

Row | Structure (SMILES) | tubular structures observed by electron microscopy after proteolysis [1] | solubility in the organic solvent [2]
1 | N[C@H](Cc1ccccc1)C(=O)N[C@H](Cc1ccccc1)C(=O)O [D-Phe-D-Phe, NH2-D-Phe-D-Phe-COOH] (H-[dF]-[dF]-OH) | no significant variation | –
2 | N[C@@H](Cc1ccccc1)C(=O)N[C@@H](Cc1ccccc1)C(=O)O [NH2-Phe-Phe-COOH] (H-Phe-Phe-OH) | no tubular structures were observed | highly soluble
